Control value expectation and Actual control value data for two compounds are collected here from US8324131B2, “Composition and method for controlling plant diseases” (Sumitomo Chemical Company, Limited, priority 2008, dated 2012).

Experiment [1] relates to pathogen of cucumber gray mold. Kind of experiment: Cucumber gray mold foliar spray test (Test Example 2). Format: in vivo, Botrytis cinerea. The following applies: 12.5 ppm of each test compound; for Actual control value: spray to stalk and leaves of cucumber seedlings, 12° C., high humidity, 6 days. From the text: A plastic pot was filled with sandy soil and cucumber (Sagamihanjiro) seeds were disseminated on it. Then the seeds were allowed to grow in a glasshouse for 12 days. A wettable powder of ethaboxam and a wettable powder of metconazole were individually diluted with water and then mixed to prepare mixed liquids containing ethaboxam and metconazole in predetermined concentration. These mixed liquids were sprayed to the stalk and leaves of cucumber seedlings to adhere them sufficiently on the surface of leaves of the seedlings. After spraying, the cucumber seedlings were air-dried and a PDA medium containing spores of pathogen of cucumber gray mold was placed onto the leaves of the seedlings. Then the plants were allowed to stand at 12° C. under high humidity for 6 days, and thereafter control effect was checked.
As a comparison, mixed liquids containing ethaboxam and triadimefon, mixed liquids containing ethaboxam and triadimenol, and mixed liquids containing ethaboxam and imazalil were prepared, sprayed to the stalk and leaves of cucumber seedlings to adhere them sufficiently on the surface of leaves of the seedlings, and subjected to similar tests, respectively. In addition, the above wettable powder of ethaboxam and the above wettable powder of metconazole were individually diluted with water to prepare liquids containing ethaboxam in predetermined concentration and liquids containing metconazole in predetermined concentration and then subjected to similar tests.
The incidence of disease was calculated by Equation 4 and the control value was calculated by Equation 2 based on the incidence of disease.
Incidence of disease=(diameter of leaf spot of plant in treated area)/(diameter of leaf spot of plant in untreated area)×100 “Equation 4”

Experiment [2] concerns Pythium ultimum, pathogen of cucumber damping-off. Kind of experiment: Cucumber damping-off seed treatment test (Test Example 1). Format: in vivo. The following applies: 18° C., 13 days. An excerpt:
An acetone solution of ethaboxam and an acetone solution of metconazole were mixed to prepare mixed liquids containing ethaboxam and metconazole in predetermined concentration. These mixed liquids were adhered on the surface of cucumber (Sagamihanjiro) seeds and allowed to stand still overnight. A plastic pot was filled with sandy soil and the seeds were disseminated on it. Then the seeds were covered with sandy soil which had been mixed with a bran medium on which Pythium ultimum, pathogen of cucumber damping-off, had been allowed to grow. They were irrigated and allowed to grow at 18° C. under humidity for 13 days, and thereafter control effect was checked.
As a comparison, acetone solutions containing ethaboxam in the predetermined concentration and acetone solutions containing metconazole in the predetermined concentration were prepared and subjected to similar tests.
In order to calculate the control value, the incidence of disease was also determined in the case in which the seeds had not been treated with the agent.
The incidence of disease was calculated by Equation 1 and the control value was calculated by Equation 2 based on the incidence of disease.
Incidence of disease=(Number of no emerging seedlings and number of seedlings in which development of disease was observed)×100/(Number of total disseminated seeds) “Equation 1” Control value=100×(A−B)/A “Equation 2”;
A: Incidence of disease of plant in untreated area
B: Incidence of disease of plant in treated area
Generally, the control value expected for the case in which the given two kinds of active ingredient compounds are mixed and used for the treatment, the so-called control value expectation is calculated from the following Colby's calculating equation. E=X+Y−(X×Y)/100 “Equation 3”;
X: Control value (%) when active ingredient compound A is used for treatment in M g per 100 kg or M ppm of seeds
Y: Control value (%) when active ingredient compound B is used for treatment in N g per 100 kg or N ppm of seeds
E: Control value (%) expected for the case in which active ingredient compound A in M g per 100 kg or M ppm of seeds and active ingredient compound B in N g per 100 kg or N ppm of seeds are mixed and used for treatment (hereinbelow referred to as “control value expectation”) “Synergetic effect (%)” (Actual control value)×100/(Control value expectation)

Turning to `CCNc1nc(CC)c(C(=O)NC(C#N)c2cccs2)s1` (stereo not drawn) [Ethaboxam], in experiment [1], the Control value expectation is recorded as 0%. In addition, the figures for the Actual control value in experiment [1], in experiment [2] (Ethaboxam 5 g/100 kg-seed alone) and in experiment [2] (Ethaboxam 10 g/100 kg-seed alone) were 0%, 25% and 58%, respectively.

Turning to `CC1(C)CCC(Cc2ccc(Cl)cc2)C1(O)Cn1cncn1` (stereo not drawn) [Metconazole], the Control value expectation in experiment [1] worked out at 0%. The Actual control value in experiment [1], in experiment [2] (Metconazole 5 g/100 kg-seed alone), in experiment [2] (Metconazole 10 g/100 kg-seed alone) and in experiment [2] (Metconazole 20 g/100 kg-seed alone) was 0% throughout.
